From patent US4975445A, “Substituted cyclohexenes as central nervous system agents” (priority 1989, dated 1990)
Read-outs that look alike come from different tables or passages of the source.

Columns and labels:
[1] = biological target: [^3 H]-Spiroperidol binding (receptor); test: Inhibition of [3H]-spiroperidol binding (receptor assay, Grigoriadis and Seeman)
Protocol: (§1) The compounds of Formula I are valuable dopaminergic agents. […] Thus, the compounds of Formula I were tested for their ability to inhibit locomotor activity in mice according to the assay described by J. R. McLean, et al, Pharmacoloqy, Biochemistry and Behavior, Volume 8, pages 97-99 (1978); for their ability to inhibit [^3 H]-spiroperidol binding in a receptor assay described by D. Grigoriadis and P. Seeman, Journal of Neurochemistry, Volume 44, Pages 1925-1935 (1985); and for their ability to inhibit dopamine synthesis in rats according to the protocol described by J. R. Walters and R. H. Roth, Naunyn-Schmiedeberg's Archives of Pharmacology, Volume 296, pages 5-14 (1976). The above test methods are incorporated herein by reference. The data in the table show the dopaminergic activity of representative compounds of Formula I. Additionally, compounds of Formula I are ligands for the sigma opiate binding site. The data in the table show the inhibition of [^3 H]DTG ([…], a sigma ligand) binding by representative compounds of Formula I, according to the method of E. Weber, et al. Proceedings of the National Academy of Sciences, USA, Volume 83, Pages 8784-8788 (1986).

[2] = system: Brain Striatal Dopamine Synthesis; test: Inhibition of brain striatal dopamine synthesis in rats (Walters and Roth); assay type: in vivo; details: Rattus norvegicus, IP, read-out: Effects on Brain Striatal Dopamine Synthesis in Rats, inhibition
Protocol: as §1

mice = test: Inhibition of locomotor activity in mice (McLean et al.); assay type: in vivo; details: Mus musculus, read-out: Inhibition of Locomotor Activity in Mice ED50
Protocol: as §1

[3] = biological target: sigma opiate binding site; test: Inhibition of [3H]DTG (ditoluoylguanidine) binding (Weber et al.)
Protocol: as §1

Compound | IC50 [1] | IC50 [3] | inhibition at 10 mg/kg [2] | ED50 (mice; mice, IP) | ED50 (mice; ip)
C1=C(c2cccnc2)CCC(N2CCN(c3ccccn3)CC2)C1 (racemic) [Example 1, (±)-1-(2-Pyridinyl)-4-[4-(3-pyridinyl)-3-cyclohexen-1-yl]piperazine] | 188 nM | – | 100% | 0.1 mg/kg | –
C1=C(c2ccccn2)CCC(N2CCN(c3ccccn3)CC2)C1 (racemic) [Example 1a, (±)-1-(2-Pyridinyl)-4-[4-(2-pyridinyl)-3-cyclohexen-1-yl]-piperazine] | 1180 nM | – | 75% | 0.9 mg/kg | –
C1=C(c2ccccn2)CCC(CCN2CCN(c3ccccn3)CC2)C1 (racemic) [Example 1b, (±)-1-(2-Pyridinyl)-4-[2-[4-(2-pyridinyl)-3-cyclohexen-1-yl]ethyl]piperazine] | 128 nM | 39 nM | – | 0.4 mg/kg | –
C1=C(c2cccs2)CCC(N2CCN(c3ccccn3)CC2)C1 (racemic) [Example 2, (±)-1-(2-Pyridinyl)-4-[4-(2-thienyl)-3-cyclohexen-1-yl]-piperazine] | 352 nM | – | – | 9.3 mg/kg | –
C1=C(c2ccccc2)CCN(CCC2CC=C(c3cccs3)CC2)C1 (racemic) [Example 2g, (±)-1,2,3,6-Tetrahydro-4-phenyl-1-[2-[4-(2-thienyl)-3-cyclohexen-1-yl]ethyl]pyridine] | 32 nM | 2 nM | – | – | 3 mg/kg
C1=C(c2ccccc2)CCN(C2CC=C(c3ccccn3)CC2)C1 (racemic) [Example 3, (±)-2-[4-(3,6-Dihydro-4-phenyl-1(2H)-pyridinyl)-1-cyclohexen-1-yl]pyridine] | 296 nM | – | – | – | 2 mg/kg

Now from value to molecule, other results behind:

IC50 [1] | IC50 [3] | Compound | inhibition at 10 mg/kg [2] | ED50 (mice; mice, IP) | ED50 (mice; ip)
599 nM | – | C1=C(c2ccccc2)CCC(N2CCN(c3ccccn3)CC2)C1 (racemic) [Example 2a, (±)-1-(4-Phenyl-3-cyclohexen-1-yl)-4-(2-pyridinyl)piperazine] | – | 1 mg/kg | –
2430 nM | – | C1=C(c2cccs2)CCC(CN2CCN(c3ccccn3)CC2)C1 (racemic) [Example 2b, (±)-1-(2-Pyridinyl)-4-[[4-(2-thienyl)-3-cyclohexen-1-yl]methyl]-piperazine] | – | < 30 mg/kg | –
– | 39 nM | C1=C(c2cccs2)CCC(CCN2CCN(c3ccccn3)CC2)C1 (racemic) [Example 2c, (±)-1-(2-Pyridinyl)-4-[2-[4-(2-thienyl)-3-cyclohexen-1-yl]ethyl]-piperazine] | 46% | 8.4 mg/kg | –
409 nM | 23 nM | C1=C(c2ccccc2)CCC(CCN2CCN(c3ccccn3)CC2)C1 (racemic) [Example 2d, (±)-1-[2-(4-Phenyl-3-cyclohexen-1-yl)ethyl]-4-(2-pyridinyl)piperazine] | 48% | 1.9 mg/kg | –
365 nM | 20 nM | Fc1ccc(C2=CCC(CCN3CCN(c4ccccn4)CC3)CC2)cc1 (racemic) [Example 2e, (±)-1-[2-[4-(4-Fluorophenyl)-3-cyclohexen-1-yl]ethyl]-4-(2-pyridinyl)piperazine] | 23% | 2.9 mg/kg | –
267 nM | 98 nM | C1=C(c2nccs2)CCC(CCN2CCN(c3ccccn3)CC2)C1 (racemic) [Example 2f, (±)-1-(2-Pyridinyl)-4-[2-[4-(2-thiazolyl)-3-cyclohexen1-yl]-ethyl]piperazine] | 77% | 0.8 mg/kg | –
